# Reference: US20070073039A1, “Peptides that inhibit viral infections” (priority 2005, published 2007)
# pEC50: −log10 of the molar value. Like-named read-outs stand apart in the source and are kept apart here.
# What was measured:
# [1] = MTT cytotoxicity assay; assay type: cell-based; settings: human, hepatocyte cell lines, read-out: LD50 (MTT cytotoxicity)
# Protocol: Peptide cytotoxicity was measured by MTT cytotoxicity assay based on the protocol provided in the ATCC MTT assay kit (Cat #30-1010K). In brief, 5000-10,000 cells were seeded per well in a 96 well plate. Following overnight growth, 100 μL fresh medium plus 20 μL of 2-fold serially diluted peptide was added. Media without peptides was added to at least 3 wells as untreated controls. The cells were then incubated for 72 hours at 37° C., 5% CO2. After this incubation, 1/10 volume of MTT solution ([…] in PBS) was added to each well, and the cells were returned to the incubator. Two hours later, the medium was removed, 150 μL DMSO was added to dissolve the purple precipitate formazan, and the plate was shaken at 150 rpm for 10 minutes. Absorbance at 570 nm less background at 670 nm is a reliable measure of […]. Cytotoxicity (LD50) of individual peptides was defined as the peptide concentration that caused 50% cell death.
# [2] = Preliminary in vivo toxicity in mice
# Protocol: As a preliminary measurement of the in vivo cytotoxicity of the peptides 1, 2 and 3 (see Table 4) a group of three mice (BALB/c mice, 7 weeks old, about 23 g) were each injected with 92 μg L-type peptide 1 ( ˜4 mg/kg) in 200 μL PBS (spun 14,000 rpm for 3 minutes before injection). In the control group, each of three mice was given 200 μL PBS containing 5% DMSO. The mice were monitored for acute toxicity during the first 3 hours after injection.
# No change in appearance, activity or behavior was observed. The mice were then weighed on days 0, 3, 5, 7 and 10. Peptide-injected mice gained weight at the same rate as the controls.
# [3] = Serum stability of L- and D-type peptides (10% FBS, 37° C., antiviral readout); assay type: in vitro ADME; settings: within 1 hour
# From the text: Peptides composed of L-amino acids are susceptible to proteolysis, which could shorten their half-life and, thus, their biological activity. To examine this possibility and to determine if specific peptide-viral protein interactions mediate antiviral activity, peptide 1 was synthesized using all D-amino acids, purified to >95% homogeneity, and its antiviral activity and serum stability were compared with a similarly pure preparation of the L-type version of peptide #1. Both L- and D-type peptides were diluted 1:100 in complete growth medium (10% FBS) and mixed with an equal volume of viral supernatant.
# In addition, to compare the serum stability of the L- and D-type peptides, the diluted peptide was incubated at 37° C. for 1 hour, 2 hours and 4 hours before mixing with viral supernatant. The virus-peptide mixture was then used to infect Huh-7.5.1 cells (MOI=0.1). After adsorption for 4 hours at 37° C., the virus-peptide inoculum was removed. The cells were washed 2 times, overlaid with 120 μL fresh growth medium and incubated at 37° C. for 3 days. Cells were lysed and subjected to RNA analysis. The HCV RNA transcript level was measured by real time RT-QPCR and normalized to cellular GAPDH levels. […] Thus, in addition to low immunogenicity and possible oral bioavailability, peptides composed of D-amino acids have the potential therapeutic advantage of enhanced serum stability.
# [4] = system: Dengue-2; test: Dengue-2 infection of Vero cells, Intracellular FACS Assay; assay type: cell-based; settings: 20 μM
# Protocol: Intracellular FACS Assay: Vero cells were seeded for 24 h pre-infection in 6-well plates. Cells were exposed to Dengue-2 in the presence of increasing concentrations of peptide (or DMSO as control). Viruses and peptide were washed away 2 h post-infection. Cells were taken for intracellular staining 3 days post-infection. Cells were stained with appropriate isotype control, Dengue Env, Dengue capsid or tubulin antibodies. Cells were analyzed by FACS.
# [5] = system: HCV; test: Median effective concentration (EC50) by intracellular HCV RNA RT-QPCR; assay type: cell-based, Hepatitis C virus (JFH-1); settings: Huh-7.5.1 cells, MOI 0.1
# Protocol: (§1) To determine the median effective concentration (EC50) of peptide #1, peptide stock solution (3.6 mM in DMSO) was serially 2-fold diluted in DMSO. An aliquot of peptide from each dilution was then diluted 1:100 in complete growth medium and mixed with equal volume of virus supernatant. The virus-peptide mixture was then used to infect Huh-7.5.1 cells (MOI=0.1). After adsorption for 4 hours at 37° C., the virus-peptide inoculum was removed. The cells were washed 2 times, overlaid with 120 μL fresh growth medium and incubated at 37° C. for 3 days. Cells were lysed and subjected to RNA analysis. The HCV RNA transcript level was measured by real time RT-QPCR and normalized to cellular GAPDH levels. The inhibition of HCV infection was calculated by comparing the intracellular HCV RNA transcript between the peptide treatment and solvent control.
# as §1, with “(EC50) of the L- and D-form” for “(EC50)”, “serially diluted” for “serially”, “2-fold” for “2-fold diluted”
# [6] = system: Huh-7.5.1 cells; test: Toxicity on Huh-7.5.1 cells incubated with peptides
# [7] = system: JFH-1 virus; test: Interferon treatment of Huh-7.5.1 cells before JFH-1 infection; assay type: cell-based, Hepatitis C virus (JFH-1); settings: 5, 50 and 500 IU/mL; Huh-7.5.1, MOI 0.3; 3 days
# Protocol: The viral inoculum was removed 4 hours later and the cells were further cultured with interferon for 3 days. At that time cells were harvested, RNA was isolated and analyzed by real-time RT-PCR to determine the intracellular HCV RNA levels. Bars represent intracellular HCV RNA levels expressed as a % of the levels obtained in the control infections.
# Interferon treatment. […] The inoculum was removed after 3 hours of incubation at 37° C., and fresh DMEM supplemented with the indicated doses of IFN was added to the cells. The efficiency of the infection was monitored 72 hours later by quantitative RT-PCR.
# [8] = system: HCV; test: Intracellular HCV RNA by real time RT-QPCR after infection of Huh-7.5.1 cells with and without peptide; assay type: cell-based, Hepatitis C virus (JFH-1); settings: working concentration 18.4-27.5 μM per peptide
# Protocol: To accurately quantify the inhibitory effect of the selected peptides on HCV infection, intracellular HCV RNA was measured after infection by real time RT-QPCR with and without peptide treatment. The peptide stock solution was diluted 1:100 and mixed with equal volume of viral supernatant (propagated from day 18 virus preparation post transfection) to a final concentration approximately 20 μM. The virus with peptide or 0.5% DMSO solvent control was then used to infect Huh-7.5.1 cells at a multiplicity of infection (MOI) of 0.1. After an adsorption for 4 hours at 37° C., the inoculum was removed. The cells were washed 2 times, overlaid with 120 μL fresh growth medium and incubated at 37° C. At the indicated time points, total cellular RNA was isolated by the guanidine thiocyanate method. The HCV RNA transcript level was measured by real time RT-QPCR with the primers 5′—
# normalized to cellular GAPDH levels.
# To define the antiviral action of peptide #1 (SEQ ID NO:43), the antiviral activity of a series of N-terminal and C-terminal truncations of peptide 1 was analyzed using the focus reduction assay and by measuring the reduction in intracellular HCV RNA as described.
# [9] = system: Dengue-2; test: Dengue-2 infection of Vero cells, Enzyme-linked Immunosorbent Assay; assay type: cell-based; settings: 1.25 μM, 5 days
# [10] = system: Dengue-2; test: Dengue-2 Fluorescent Foci Assay; assay type: cell-based; settings: FIG. 19; 20 μM
# Protocol: Fluorescent Foci Assay: Vero cells were seeded for 24 h pre-infection in 96-well plates. Cells were exposed to Dengue-2 in the presence of increasing concentrations of peptide (or DMSO as control). Viruses and peptide were washed away 2 h post-infection. Supernatants were collected every 3 days post-infection and added to fresh Vero cells for fluorescent foci assay. Newly infected Vero cells were fixed with 4% formaldehyde after 3 days. Cells were then stained with Dengue Env antibodies followed by Alexa-fluor dye conjugated secondary antibodies. Foci were counted using a fluorescent microscope.
# Fluorescent Foci Assay. Vero cells were seeded for 24 hours pre-infection in 96-well plates. Cells were exposed to Dengue-2 in the presence of increasing concentrations of peptide (or DMSO as control). Viruses and peptide were washed away 2 hours post-infection. Supernatants were collected every 3 days post-infection and added to fresh Vero cells for fluorescent foci assay. Newly infected Vero cells were fixed with 4% formaldehyde after 3 days. Cells were then stained with antibodies directed to the Dengue Envelop protein followed by Alexa-fluor dye conjugated secondary antibodies. Foci were counted using a fluorescent microscope.
# [11] = system: Dengue-2; test: Dengue-2 infection of Vero cells, Enzyme-linked Immunosorbent Assay; assay type: cell-based; settings: for Inhibition of Dengue Infection, α-Capsid 9A7 / Inhibition of Dengue Infection, α-DEN ENV: Vero cells, 5 days
# Protocol: Enzyme-linked Immunosorbent Assay. Vero cells (80,000 cells/well/ml) were seeded for 24 h pre-infection in 24-well plates. Cells were exposed to Dengue-2 (derived from Vero cells) in the presence of increasing concentration of peptide (or DMSO as control). Viruses and peptide were not removed (cells were not washed) throughout the incubation. Infection was analyzed after 5 days using ELISA that measured the amounts of Dengue-2 capsid released in the supernatant of infected Vero cells.
# [12] = system: HCV; test: HCV focus reduction assay; assay type: cell-based, Hepatitis C virus (JFH-1); settings: 72 h; working concentration 18.4-27.5 μM per peptide; Mock 51
# Method in brief: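 Huh-7.5.1 cells infected with 50 ffu HCV premixed with peptide (~20 μM screen; derivatives at 18, 6 and 2 μM), 4 h adsorption at 37 °C, then washed and cultured 3 days. Foci immunostained for NS5A and counted by fluorescence microscopy. Values are % of mock with 0.5% DMSO solvent.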
compound,measurement,setting,value
CC[C@H](C)[C@H](NC(=O)[C@H](CC(=O)O)NC(=O)[C@H](CCCNC(=N)N)NC(=O)[C@H](CC(C)C)NC(=O)[C@H](Cc1c[nH]c2ccccc12)NC(=O)[C@@H](N)CO)C(=O)N[C@@H](Cc1c[nH]c2ccccc12)C(=O)N[C@@H](CC(=O)O)C(=O)N[C@@H](Cc1c[nH]c2ccccc12)C(=O)N[C@H](C(=O)N[C@@H](CS)C(=O)N[C@@H](CCC(=O)O)C(=O)N[C@H](C(=O)N[C@@H](CC(C)C)C(=O)N[C@@H](CO)C(=O)N[C@@H](CC(=O)O)C(=O)N[C@@H](Cc1ccccc1)C(=O)N[C@@H](CCCCN)C(=O)O)C(C)C)[C@@H](C)CC [Peptide 1],CC50 at 72 h,[1]; with FBS,26.7 µM
same,CC50 at 72 h,[1]; without FBS,3.8 µM
same,In vivo toxicity observation,"[2]; 92 μg ( ˜4 mg/kg) in 200 μL PBS, acute toxicity first 3 hours, weight to day 10","Peptides 1, 2 and 3 are Nontoxic in C57BL/6 Mice"
same,Weight(g) (d.0),"[2]; day 0, ˜4 mg/kg injected",22.2 g
same,Weight(g) (d.3),[2]; day 3,22.3 g
same,Weight(g) (d.5),[2]; day 5,22.8 g
same,Weight(g) (d.7),[2]; day 7,23.1 g
same,Weight(g) (d.10),[2]; day 10,23.5 g
same,Antiviral activity lost on incubation in 10% FBS at 37° C.,[3],approximately 95%
same,% of Dead cells PI,"[4]; propidium iodide staining, Vero cells 3 days post-infection",1.88%
same,pEC50,"[5]; FIG. 12B-C, 3 days, read-out: EC50 of the L- and D-forms of peptide 1",~6.00
same,pEC50,"[5]; peptide with virus 4 hours, HCV RNA after 3 days, listed as peptide 1, read-out: EC50 against HCV infection",6.52
same,pEC50,"[5]; peptide with virus 4 hours, HCV RNA after 3 days, listed as peptide #1, read-out: EC50 against HCV infection",~6.52
same,pEC50,"[5]; peptide with virus 4 hours, HCV RNA after 3 days, read-out: EC50 against HCV infection",6.54
same,Evidence of toxicity / cytotoxicity,[6],without evidence of cytotoxicity
"IFNγ: human IFNγ (PBL Biomedical Lab, Piscataway, N.J.)",Inhibition of HCV infection by interferons,[7],efficiently inhibit HCV infection
LRDIWDWICEVLSDFK [^N-16mer],Fold Inhibition on HCV RNA (24 h),[8]; 24 h,0.7 fold
same,Fold Inhibition on HCV RNA (72 h),[8]; 72 h,0.6 fold
same,"Inhibition of Dengue Infection, α-DEN ENV",[9],10.24%
same,Inhibition of Dengue viral infection by immunofluorescence assay,[10],about 90%
same,"Inhibition of Dengue Infection, α-Capsid 9A7",[11]; 1.25 μM,12.82%
same,"Inhibition of Dengue Infection, α-Capsid 9A7",[11]; 5 μM,16.01%
same,"Inhibition of Dengue Infection, α-DEN ENV",[11]; 5 μM,33.64%
same,"Inhibition of Dengue Infection, α-Capsid 9A7",[11]; 20 μM,82.2%
same,"Inhibition of Dengue Infection, α-DEN ENV",[11]; 20 μM,74.83%
same,Inhibition of Dengue viral infection as detected by ELISA,"[11]; FIG. 17, 20 μM",about 84%
same,Focus Reduction (72 h),[12],125
same,Inhibition of Dengue viral infection as detected by FACS,[4]; FIG. 18,about 80%
